Source: PMC10041529 (Journal of Medicinal Chemistry, 2023)

What was measured:
[1] = target: T1, GSK3β-mediated phosphorylation of Cyclin D1 (Homo sapiens, UniProt P49841); assay: Cyclin D1 phosphorylation profile (Western Blot) in transfected HEK293T cells; type: cell-based; details: HA-Cyclin D1 + FLAG-GSK3β, 10 μM, 3 h
T1 construct: we used only GSK3β (26–383) kinase domain constructs in our cellular studies; expressed in transfected cells; host or cells: HEK293T (pcDNA3.1, transient)

[2] = system: calcineurin/NFAT pathway with overexpressed GSK3β; assay: NFAT translocation assay (EGFP-NFATc1 imaging) in HEK293T cells; type: cell-based, human; details: pretreatment 3 h, ionomycin 1 h
Description: One of the important cellular targets of DYRK1A and GSK3β is the NFAT (Nuclear factor of activated T-cells) transcription factor, which plays a major role in regulating the cell cycle.[52] The calcineurin/NFAT signaling controlled by DYRK1A and GSK3β activity is an important target for neurodegenerative processes and β-cell proliferation. Both kinases inactivate NFAT’s transcription factor by phosphorylation of its nuclear pool, which leads to cytosolic export. […] In unstimulated cells, EGFP-NFAT stayed predominantly in the cytosol, and only after stimulation with ionomycin, the nuclear translocation and accumulation of EGFP-NFAT were observed (Figure 4). Overexpression of any of the kinases blocked the nuclear accumulation of EGFP-NFAT upon cell stimulation, proving the negative regulation of the calcineurin/NFAT pathway by DYRK1A or GSK3β.
EGFP-NFATc1 (green) was cotransfected with either a mock vector, DYRK1A (red), or GSK3β (red) into HEK293T cells.
HEK293T cells were grown on a μ-Slide 8 well (IBIDI) to 50%–70% confluency. The plasmids expressing the desired proteins, mCherry-DYRK1A or mCherry-GSK3β and eGFP-NFATc1, were transiently cotransfected for 24 h with PEI Prime (Sigma-Aldrich). […] Images were collected with a Zeiss Axio Observer 3 fluorescence microscope and analyzed in ZEN Blue edition software.

[3] = target: T2, DYRK1A kinase domain (126–490) (Homo sapiens, UniProt Q13627); assay: Microscale thermophoresis (MST) direct binding assay; details: CK2α vs DYRK1A
T2 construct: The recombinant kinase domains of DYRK1A (126–490) and GSK3β (26–383), both with C-terminal His-tag extension; made in house; host or cells: E. coli LOBSTR

[4] = target: T3, DYRK1A-mediated phosphorylation of Cyclin D1 (Homo sapiens, UniProt Q13627); assay: Cyclin D1 phosphorylation profile (Western Blot) in transfected HEK293T cells; type: cell-based; details: HA-Cyclin D1 + FLAG-DYRK1A, 10 μM, 3 h
T3 construct: expressed in transfected cells; host or cells: HEK293T (pcDNA3.1, transient)

[5] = system: calcineurin/NFAT pathway with overexpressed DYRK1A; assay: NFAT translocation assay (EGFP-NFATc1 imaging) in HEK293T cells; type: cell-based, human; details: 5 μM pretreatment 3 h, ionomycin 1 h
DYRK1A = system: DYRK1A; set-up: method as in PMID 29191878; details: cell lysates; Table S2 of ref 38; read-out: EC50 (Kinobeads); cited from earlier work
GSK3β = system: GSK3β; set-up: method as in PMID 21870818; details: at 500 nM; cited from earlier work
DYRK2 = system: DYRK2; set-up: method as in PMID 21870818; details: at 500 nM; cited from earlier work
CK2α = system: CK2α; set-up: method as in PMID 21870818; details: at 500 nM; cited from earlier work
CLK3 = system: CLK3; set-up: method as in PMID 21870818; details: at 500 nM; cited from earlier work
HIPK3 = system: HIPK3; set-up: method as in PMID 21870818; details: at 500 nM; cited from earlier work

T1 sequence (P49841 26-383): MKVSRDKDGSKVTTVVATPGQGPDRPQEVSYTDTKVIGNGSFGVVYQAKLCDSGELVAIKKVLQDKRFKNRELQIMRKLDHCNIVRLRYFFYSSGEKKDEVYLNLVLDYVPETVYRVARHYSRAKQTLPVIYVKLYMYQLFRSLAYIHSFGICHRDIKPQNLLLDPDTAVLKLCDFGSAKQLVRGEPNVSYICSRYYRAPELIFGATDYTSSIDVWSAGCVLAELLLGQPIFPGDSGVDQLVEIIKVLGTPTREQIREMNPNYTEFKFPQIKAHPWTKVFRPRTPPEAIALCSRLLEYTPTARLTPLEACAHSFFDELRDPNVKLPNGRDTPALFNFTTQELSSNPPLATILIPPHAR

Row | SMILES | effect on GSK3β-mediated Cyclin D1 phosphorylation [1] | nuclear translocation of EGFP-NFAT despite overexpressed GSK3β [2] | difference in binding between CK2α and DYRK1A [3] | effect on DYRK1A-mediated Cyclin D1 phosphorylation [4] | nuclear translocation of EGFP-NFAT despite overexpressed DYRK1A [5] | EC50 (DYRK1A) | inhibition of GSK3β (GSK3β) | inhibition of DYRK2 (DYRK2) | inhibition of CK2α (CK2α) | inhibition of CLK3 (CLK3) | inhibition of HIPK3 (HIPK3)
1 | O=C1Cc2c([nH]c3ccc(Br)cc23)-c2ncccc2N1 [1-azakenpaullone] | same effect | reversed the effect of GSK3β-controlled NFAT cellular localization | – | – | – | – | – | – | – | – | –
2 | O=C(O)c1ccc2c(c1)nc(Nc1cccc(Cl)c1)c1ccncc12 [CX-4945, 5-(3-Chlorophenylamino)benzo[c][2,6]naphthyridine-8-carboxylic Acid] | – | reversed the effect of GSK3β-controlled NFAT cellular localization | 5 fold | complete inhibition | restore the calcineurin/NFAT pathway | […] | 55% | more than 95% | more than 90% | more than 90% | more than 90%
3 | COc1ccc2c(c1)[nH]c1c(C)nccc12 [harmine] | – | – | – | fully abolished | restore the calcineurin/NFAT pathway | – | – | – | – | – | –
